Reference: publication PMC9699089 (Pathogens, 2022)
Like-named read-outs stand apart in the source and are kept apart here.

Columns and labels:
[1] = biological target: duplex-forming sequence DK66; assay: Native electrospray mass spectrometry, DK66; assay type: binding; parameters: key to Kd DK66, stoichiometry 2 (Kd2) / Kd DK66, stoichiometry 1 (Kd1): n.b.: no binding detected; <LOQ: binding detected but below limit of quantitation; conditions: 100 mM TMAA, 1 mM KCl; for Kd: read-out: Kd DK66, stoichiometry 1 (Kd1); for Kd DK66, stoichiometry 2 (Kd2): 2:1 ligand:DNA complex
Experimental: (§1) Oligonucleotides were purchased in the lyophilized form from Eurogentec (RP-cartridge purification), and dissolved at 1 mM in pure water. TMAA (1 M) was purchased from Santa Cruz Biotechnology and potassium chloride (purity > 99.99%) from Sigma Aldrich (Sigma Aldrich, Saint-Quentin-Fallavier, France). The sample solutions contained 10 µM oligonucleotide and 10 (for CD only) or 20 µM ligand, in a 100 mM TMAA, 1mM KCl buffer. The solutions were incubated overnight at 4 °C before analysis.
(§2) The sample solutions were injected at a 10 µM strand concentration on an Agilent 6560 DTIMS-Q-TOF instrument (Agilent Technologies, Santa Clara, CA, USA), equipped with a dual-ESI source operated in the negative ion mode in soft conditions. The following parameters were used: fragmentor 320 V, trap fill time 1000 µs, trap release time 200 µs, trap entrance grid delta 2 V. The drift tube was filled with helium and the pressure was fixed at 3.89 ± 0.01 Torr (measured by a capacitance diaphragm gauge CDG-500, Agilent Technologies).
(§3) The MS data were extracted using the IM-MS Browser (v. B.08.00; Agilent Technologies). The peak area intensity of each species at the 5- charge state was extracted from their corresponding m/z range (encompassing potassium adducts), and baseline subtracted. The concentrations of all species (free DNA, free ligands, and complexes) and corresponding dissociation constants were determined as previously described.

[2] = test system: Trypanosoma 9 and 11 chromosomic sequence FTrypBT (FEBR1T) G-quadruplex; assay: FRET melting assay, FtrypBT; assay type: binding, Trypanosoma brucei brucei; conditions: compound 2 μM, oligonucleotide 0.2 μM, K+ conditions
Method in brief: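 Dual-labelled FAM/TAMRA oligonucleotides (0.2 µM) pre-folded in 10 mM lithium cacodylate pH 7.2, 10 mM KCl, 90 mM LiCl, with 2 µM compound. FAM emission (ex 492/em 516 nm) followed from 25 to 95 °C at 1 °C/min; Tm is the temperature at normalized emission 0.5, compared with and without compound.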

[3] = test system: Plasmodium falciparum CQ-resistant strain W2; assay: In vitro antiplasmodial activity, SYBR Green I fluorescence-based method, strain W2; assay type: cell-based; conditions: CQ-resistant strain W2, 48 h incubation, mean of three independent experiments, read-out: P. falciparum Strains IC50 Values W2
Method in brief: (§4)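 P. falciparum cultured in human erythrocytes in RPMI with 0.5% Albumax I, hypoxanthine and gentamicin at 37 °C in a candle jar. Compounds tested from 39 nM to 40 µM for 48 h. Parasite DNA quantified by SYBR Green I fluorescence in saponin/Triton lysis buffer (ex 485/em 535 nm).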

[4] = Cytotoxicity evaluation, MTT assay; assay type: cell-based, human; conditions: human
Experimental: These cells are a commonly used human hepatocarcinoma-derived cell line that has characteristics similar to those of primary hepatocytes. These cells express many hepatocyte-specific metabolic enzymes, thus enabling the cytotoxicity of tested product metabolites to be evaluated. […] Duplicate assays were performed for each sample. Each well was microscopically examined for precipitate formation before the medium was aspirated from the wells. After aspiration, 100 µL of MTT solution (0.5 mg/mL in medium without FCS) were then added to each well. […] The MTT solution was removed, and DMSO (100 µL) was added to dissolve the resulting blue formazan crystals. Plates were shaken vigorously (300 rpm) for 5 min. The absorbance was measured at 570 nm with 630 nm as reference wavelength in a BIO-TEK ELx808 Absorbance Microplate Reader. DMSO was used as blank and doxorubicin (Sigma Aldrich) as positive control. Cell viability was calculated as percentage of control (cells incubated without compound). The CC50 was determined from the dose-response curve using TableCurve 2D V5.0 software (Systat Software, Palo Alto, CA, USA).

[5] = biological target: human telomeric sequence 24TTG; assay: Native electrospray mass spectrometry, 24TTG; assay type: binding; parameters: key to Kd 24TTG, stoichiometry 1 (Kd1): n.b.: no binding detected; <LOQ: binding detected but below limit of quantitation; conditions: 100 mM TMAA, 1 mM KCl
Experimental: as §1, §2, §3

[6] = test system: Plasmodium telomeric sequence FPf8T G-quadruplex; assay: FRET melting assay, FPf8T; assay type: binding, Plasmodium falciparum; conditions: compound 2 μM, oligonucleotide 0.2 μM, K+ conditions
Experimental: These were performed with dual-labeled oligonucleotides mimicking the Plasmodium telomeric sequences FPf1T [FAM-5′(GGGTTTA)3-GGG3′-TAMRA] and FPf8T [FAM-5′(GGGTTCA)3GGG3′-TAMRA], the Trypanosoma 9 and 11 chromosomic sequence FTrypBT (also named FEBR1T) [FAM-5′[…]3′-TAMRA], the human telomeric sequence F21T [FAM-(GGGTTA)3-GGG3′-TAMRA] and the human duplex sequence FdxT [FAM5′-[…]-hexaethyleneglycol-[…]3′-TAMRA] [27, 31, 47]. The oligonucleotides were pre-folded in 10 mM lithium cacodylate buffer (pH 7.2), with 10 mM KCl and 90 mM LiCl (K^+ condition). The FAM emissions were recorded at 516 nm using a 492-nm excitation wavelength in the absence and presence of a single compound as a function of temperature (25 to 95 °C) in 96-well microplates using a Stratagene MX3000P real-time PCR device at a rate of 1 °C∙min-1. Data were normalized between 0 and 1, and the required temperature for half-denaturation of oligonucleotides corresponding to the emission value of 0.5 was taken as the Tm. Each experiment was performed in duplicate with 0.2 µM of labeled oligonucleotide and 2 µM of compound under K^+ condition. For each compound, three independent experiments were carried out.

[7] = test system: Plasmodium falciparum CQ-sensitive strain 3D7; assay: In vitro antiplasmodial activity, SYBR Green I fluorescence-based method, strain 3D7; assay type: cell-based; conditions: CQ-sensitive strain 3D7, 48 h incubation, mean of three independent experiments, read-out: P. falciparum Strains IC50 Values 3D7
Method in brief: as §4

[8] = 1:1 ligand:DNA complex, read-out: Kd 24TTG, stoichiometry 1 (Kd1)
[9] = 2:1 ligand:DNA complex, read-out: Kd 24TTG, stoichiometry 2 (Kd2)

Structure (SMILES)	Kd ([1]; 1:1 ligand:DNA complex) [µM]	Kd DK66, stoichiometry 2 (Kd2) [1]	ΔTm FtrypBT [2] [°C]	IC50 [3] [µM]	CC50 at 72 h [4] [µM]	Kd [5, 8] [µM]	Kd [5, 9] [µM]	ΔTm FPf8T [6] [°C]	IC50 [7] [µM]	Kd DK66, stoichiometry 1 (Kd1) ([1]; 1:1 ligand:DNA complex)	Kd 24TTG, stoichiometry 1 (Kd1) ([5]; 1:1 ligand:DNA complex)
CN(C)CCCCNCc1cc(-c2ccccc2)c2ccc3c(-c4ccccc4)cc(CNCCCCN(C)C)nc3c2n1 [Compound 1c, 2,9-Bis[(4-dimethylaminobutyl)aminomethyl]-4,7-diphenyl-1,10-phenanthroline]	110	n.b.	10.6	0.03 ± 0.003	10.4 ± 0.7	44	28	10.2	10.3 ± 2.13		
CN(C)CCCCCNCc1cc(-c2ccccc2)c2ccc3c(-c4ccccc4)cc(CNCCCCCN(C)C)nc3c2n1 [Compound 1d, 2,9-Bis[(5-dimethylaminopentyl)aminomethyl]-4,7-diphenyl-1,10-phenanthroline]	53	n.b.	14.7	3.51 ± 0.52	3.35 ± 0.33	38	62	20.5	4.79 ± 0.5		
c1ccc(-c2cc(CNCCCN3CCCC3)nc3c2ccc2c(-c4ccccc4)cc(CNCCCN4CCCC4)nc23)cc1 [Compound 1l]	55	n.b.	11.6	0.03 ± 0.01	15.2 ± 1.56	34	18	14.2	9.91 ± 1.73		
c1ccc(-c2cc(CNCCc3ccccn3)nc3c2ccc2c(-c4ccccc4)cc(CNCCc4ccccn4)nc23)cc1 [Compound 1m]			1.8	0.07 ± 0.01	4.34 ± 0.31			1.0	0.47 ± 0.12	n.b.	n.b.
